Reference: US11395798B2, “O/W type emulsion” (NOF CORPORATION, priority 2015, dated 2022)

How the values were obtained:
[1] = retentivity in blood of Dex-CHEMS / Dex-Pal emulsions (HPLC of plasma); design: species or system ICR mouse; conditions: mouse, in vivo, iv
Procedure: When the lipid composition was 3 mM B-2/DOPC/Chol=3/4/3+10 mol % Dex-CHEMS+10 mol % DMG-PEG2000+10 mol % DSG-PEG2000 (1000 μL), a lipid solution was mixed in vitro as follows.
The solvent was evaporated once and the residue was redissolved in 100 μL CHCl3. N2 gas was blown to form a lipid thin film on the wall of a test tube. After a few hours of a vacuum treatment by a desiccator, 20 mM Maric acid buffer (30 mM NaCl, pH 3.0, 1000 μL) was added, and the mixture was incubated for 10 min at room temperature. After sonication with a bath-type sonicator for 30 sec, the mixture was sonicated by a probe-type sonicator for 5 min (output power: 30%). After centrifugation at 4° C., 15000 g for 5 min, the supernatant was collected. Neutralization was performed by adding an equal amount of 36 mM NaOH/PBS.
An emulsion composed of Dex-CHEMS and B-2 was administered to ICR mouse (4 w ♂) at 25 μg Dex-CHEMS/mouse. […]
Plasma (16.5 μL) centrifuged at 4° C., 1000 g for 10 min was transferred to another 1.5 mL tube. […] Using HPLC, the peak area of Dex-CHEMS and the peak area of 4 MU-Pal were calculated. The peak area of 0.5, 0.25, 0.125, 0.0625 nmol Dex-CHEMS was calculated by a similar method using HPLC and used as an analytical curve. […]
The residual rate in blood at 1 hr later was calculated with that 1 min after the administration as 100%.

[2] = influence of concentration of PEG lipid on retentivity in blood; type: in vivo; conditions: B-2/DOPC/Chol=3/4/3, 10 mol % DMG-PEG2000, 3-9 mol % DSG-PEG2000, 10 mol % Dex-CHEMS; mouse tail vein; almost equal for 6 and 9 mol %
Procedure: An emulsion having a composition of B-2/DOPC/Chol=3/4/3+10 mol % DMG-PEG2000+3-9 mol % DSG-PEG2000+10 mol % Dex-CHEMS was prepared in the same manner as in Example 1. An emulsion having each PEG amount was administered from the mouse tail vein, plasma was collected 1 min, 1 hr, 6 hr and 24 hr later, extracted with an organic solvent, and Dex-CHEMS concentration was calculated by HPLC. Along with an increase in DSG-PEG2000, the retentivity in blood was improved to become almost equal for DSG-PEG2000 6 mol % and 9 mol %.

**Q.** With `CC(C)CCC[C@@H](C)[C@H]1CC[C@H]2C3CC=C4C[C@@H](OC(=O)CCC(=O)OCC(=O)[C@]5(O)[C@@H](C)C[C@@H]6[C@H]7CCC8=CC(=O)C=C[C@@]8(C)[C@]7(F)C(O)C[C@]65C)CC[C@]4(C)[C@H]3CC[C@]12C` (some centres unmarked) [Dex-CHEMS, dexamethasone cholesterol hemisuccinate] as the molecule, how does the “residual in blood at 1 hr (1 min after administration as 100%)” value [1] read?
**A.** continuously remained

**Q.** And the “retentivity in blood along with an increase in DSG-PEG2000” value [2]?
**A.** improved
